Test system: DMS-114 complex spheroids with HUVEC/MSC, growth % test/control
Test: Anticancer human tumor DMS-114 cell line growth inhibition [AhR];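 further: spheroids exposed to agents for 7 days before readout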;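 on viability, T/C: 100% = DMSO vehicle control wells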
Settings: for IC50: curve of first compound; for viability, T/C: stronger effect = lower value
How it was run: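 Spheroids combined tumor cells with HUVEC endothelial cells and human MSCs as stroma. AhR antagonists were paired with standard or investigational drugs, each dosed in half-log steps down from near clinical Cmax, or from 10 microM where Cmax was unknown.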

## Nc1ncn(C2CC(O)C(CO)S2)c(=O)n1 (stereo not given) + Cc1ccccc1N=Nc1ccc(NC(=O)c2ccnn2C)c(C)c1
Second compound 0.1 µM
  IC50: > 0.3 µM
Second compound 0.316 µM
  IC50: > 0.3 µM
Second compound 1 µM
  IC50: > 0.3 µM
Second compound 3.16 µM
  IC50: > 0.3 µM
Second compound 10 µM
  IC50: > 0.3 µM
Second compound 0.1 µM, first compound 0.000949 µM
  viability, T/C: 94.1%
Second compound 0.1 µM, first compound 0.003 µM
  viability, T/C: 96.7%
Second compound 0.1 µM, first compound 0.00949 µM
  viability, T/C: 106%
Second compound 0.1 µM, first compound 0.03 µM
  viability, T/C: 101%
Second compound 0.1 µM, first compound 0.0949 µM
  viability, T/C: 98.6%
Second compound 0.1 µM, first compound 0.3 µM
  viability, T/C: 88.6%
Second compound 0.316 µM, first compound 0.000949 µM
  viability, T/C: 94.9%
Second compound 0.316 µM, first compound 0.003 µM
  viability, T/C: 96.3%
Second compound 0.316 µM, first compound 0.00949 µM
  viability, T/C: 103%
Second compound 0.316 µM, first compound 0.03 µM
  viability, T/C: 105%
Second compound 0.316 µM, first compound 0.0949 µM
  viability, T/C: 111%
Second compound 0.316 µM, first compound 0.3 µM
  viability, T/C: 95.5%
Second compound 1 µM, first compound 0.000949 µM
  viability, T/C: 101%
Second compound 1 µM, first compound 0.003 µM
  viability, T/C: 102%
Second compound 1 µM, first compound 0.00949 µM
  viability, T/C: 99.2%
Second compound 1 µM, first compound 0.03 µM
  viability, T/C: 105%
Second compound 1 µM, first compound 0.0949 µM
  viability, T/C: 117%
Second compound 1 µM, first compound 0.3 µM
  viability, T/C: 98.9%
Second compound 3.16 µM, first compound 0.000949 µM
  viability, T/C: 113%
Second compound 3.16 µM, first compound 0.003 µM
  viability, T/C: 93.4%
Second compound 3.16 µM, first compound 0.00949 µM
  viability, T/C: 96.9%
Second compound 3.16 µM, first compound 0.03 µM
  viability, T/C: 105%
Second compound 3.16 µM, first compound 0.0949 µM
  viability, T/C: 91.7%
Second compound 3.16 µM, first compound 0.3 µM
  viability, T/C: 91.3%
Second compound 10 µM, first compound 0.000949 µM
  viability, T/C: 99.4%
Second compound 10 µM, first compound 0.003 µM
  viability, T/C: 97.3%
Second compound 10 µM, first compound 0.00949 µM
  viability, T/C: 92.3%
Second compound 10 µM, first compound 0.03 µM
  viability, T/C: 94.3%
Second compound 10 µM, first compound 0.0949 µM
  viability, T/C: 91.7%
Second compound 10 µM, first compound 0.3 µM
  viability, T/C: 74.7%

## CC1COCCN1c1cc(C2(S(C)(=N)=O)CC2)nc(-c2ccnc3[nH]ccc23)n1 (stereo not given) + Cc1ccccc1N=Nc1ccc(NC(=O)c2ccnn2C)c(C)c1
Second compound 0.1 µM
  IC50: > 10 µM
Second compound 0.316 µM
  IC50: > 10 µM
Second compound 1 µM
  IC50: > 10 µM
Second compound 3.16 µM
  IC50: > 10 µM
Second compound 10 µM
  IC50: > 10 µM
Second compound 0.1 µM, first compound 0.0316 µM
  viability, T/C: 107%
Second compound 0.1 µM, first compound 0.1 µM
  viability, T/C: 100%
Second compound 0.1 µM, first compound 0.316 µM
  viability, T/C: 104%
Second compound 0.1 µM, first compound 1 µM
  viability, T/C: 109%
Second compound 0.1 µM, first compound 3.16 µM
  viability, T/C: 106%
Second compound 0.1 µM, first compound 10 µM
  viability, T/C: 77.6%
Second compound 0.316 µM, first compound 0.0316 µM
  viability, T/C: 102%
Second compound 0.316 µM, first compound 0.1 µM
  viability, T/C: 98.1%
Second compound 0.316 µM, first compound 0.316 µM
  viability, T/C: 103%
Second compound 0.316 µM, first compound 1 µM
  viability, T/C: 103%
Second compound 0.316 µM, first compound 3.16 µM
  viability, T/C: 92.5%
Second compound 0.316 µM, first compound 10 µM
  viability, T/C: 74.1%
Second compound 1 µM, first compound 0.0316 µM
  viability, T/C: 95.5%
Second compound 1 µM, first compound 0.1 µM
  viability, T/C: 94.5%
Second compound 1 µM, first compound 0.316 µM
  viability, T/C: 90.6%
Second compound 1 µM, first compound 1 µM
  viability, T/C: 102%
Second compound 1 µM, first compound 3.16 µM
  viability, T/C: 102%
Second compound 1 µM, first compound 10 µM
  viability, T/C: 71.5%
Second compound 3.16 µM, first compound 0.0316 µM
  viability, T/C: 93.3%
Second compound 3.16 µM, first compound 0.1 µM
  viability, T/C: 90.5%
Second compound 3.16 µM, first compound 0.316 µM
  viability, T/C: 99.3%
Second compound 3.16 µM, first compound 1 µM
  viability, T/C: 95.4%
Second compound 3.16 µM, first compound 3.16 µM
  viability, T/C: 94.2%
Second compound 3.16 µM, first compound 10 µM
  viability, T/C: 68%
Second compound 10 µM, first compound 0.0316 µM
  viability, T/C: 95.7%
Second compound 10 µM, first compound 0.1 µM
  viability, T/C: 90.7%
Second compound 10 µM, first compound 0.316 µM
  viability, T/C: 96.2%
Second compound 10 µM, first compound 1 µM
  viability, T/C: 89.6%
Second compound 10 µM, first compound 3.16 µM
  viability, T/C: 86.1%
Second compound 10 µM, first compound 10 µM
  viability, T/C: 63.1%

Reference: PubChem BioAssay AID1919008 (Molecular Pharmacology Branch, DTP, NCI, 2023)
